Experimental data taken from patent publication US12221646B2, “Method for the rapid determination of susceptibility or resistance of bacteria to antibiotics” (ABM TECHNOLOGIES, LLC, priority 2013, dated 2025).
Read-outs that look alike come from different tables or passages of the source.

Tests used:
Assay type in all cases: cell-based
[1] = test system: Acinetobacter baumannii; assay: MIC of ceftazidime by E-test in A. baumannii strains; details: read-out: MIC determined by E-test
[2] = test system: Klebsiella pneumoniae; assay: Cell enlargement after incubation with antibiotic, K. pneumoniae; details: correlated to CLSI MIC≤4 μg/ml
Protocol: Klebsiella pneumoniae, another significant pathogen in clinical settings, was also evaluated. […] Strains were considered to be resistant when no cell enlargement was presented at either concentration.

[3] = test system: Acinetobacter baumannii; assay: Cell enlargement after one hour incubation with antibiotic (microgel, SYBR Gold, fluorescence microscopy), A. baumannii
Protocol: Each dose was correlated to susceptibility breakpoints established in Example 1. The incubated samples were then assessed under microscopy for enlargement. The criterion of enlargement/non-enlargement was determined by a comparison to a control dose of 0 μg/ml. […] Using the criterion of enlargement/non-enlargement and the correlated breakpoint concentrations, each of the 320 strains were correctly identified.

[4] = test system: Pseudomonas aeruginosa; assay: Cell enlargement after one hour incubation with antibiotic, P. aeruginosa
Protocol: Pseudomonas aeruginosa, a common source of dangerous nosocomial infections, was also evaluated. […] Those correlated breakpoint concentrations for enlargement were 0.5 μg/ml for susceptible strains and greater than 1.0 μg/ml for resistant strains.
P. aeruginosa was evaluated for the effect of carbapenems, meropenem and imipenem, which we corroborate that induce cell enlargement in the susceptible strains of this bacterium. CLSI breakpoint concentrations of susceptibility and resistance correspond to MICs≤2-≥8 μg/ml, respectively. For cell enlargement, the new breakpoint concentrations were much lower: ≤0.2->0.5 μg/ml, for susceptibility and resistance, respectively. One hundred and thirty strains of P. aeruginosa were studied, obtaining 97 susceptible, 14 intermediate and 19 resistant to meropenem, following the standard criterion of growth affectation as indicated by MIC-CL SI. All these strains were correctly categorized when using the new breakpoints for enlargement/non-enlargement.

SMILES	MIC ([1]; highly resistant strain of A. baumannii (FIG. 2, fourth row)) [µg/mL]	MIC ([1]; intermediate strain of A. baumannii (FIG. 2, second row)) [µg/mL]	MIC ([1]; susceptible strain of A. baumannii (FIG. 2, first row)) [µg/mL]	breakpoint concentration for cell enlargement, susceptible strains [2] [µg/mL]	breakpoint concentration for cell enlargement, intermediate ([3]; empirically correlated to CLSI MIC breakpoint 16 μg/ml) [µg/mL]	breakpoint concentration for cell enlargement, susceptible ([3]; empirically correlated to CLSI MIC breakpoint ≤8 μg/ml) [µg/mL]	breakpoint concentration for cell enlargement, resistant ([3]; empirically correlated to CLSI MIC breakpoint ≥32 μg/ml) [µg/mL]	cell enlargement ([3]; highly resistant strain, 1 h incubation, tested 2, 4, 8 μg/ml)	concentration from which cell enlargement is demonstrated ([3]; intermediate strain, 1 h incubation, tested 2, 4, 8 μg/ml) [µg/mL]	concentration from which cell enlargement is demonstrated ([3]; resistant strain, 1 h incubation, tested 2, 4, 8 μg/ml) [µg/mL]	concentration from which cell enlargement is demonstrated ([3]; susceptible strain, 1 h incubation, tested 2, 4, 8 μg/ml) [µg/mL]	cell enlargement, resistant strains ([4]; 1 h incubation with 0.5 μg/ml and 1 μg/ml, 5 strains)	cell enlargement, intermediate strains ([4]; 1 h incubation with 0.5 μg/ml and 1 μg/ml, 8 strains)	cell enlargement, susceptible strains ([4]; 1 h incubation with 0.5 μg/ml and 1 μg/ml, 117 strains)	breakpoint concentration for cell enlargement, susceptible strains ([4]; ceftazidime, correlated to CLSI MIC≤8 μg/ml) [µg/mL]	breakpoint concentration for cell enlargement, resistant strains ([4]; ceftazidime, correlated to CLSI MIC≥32 μg/ml)	cell enlargement, intermediate strains ([4]; incubation with 0.2 μg/ml and 0.5 μg/ml, 14 strains)	cell enlargement, resistant strains ([4]; incubation with 0.2 μg/ml and 0.5 μg/ml, 19 strains)	cell enlargement, susceptible strains ([4]; incubation with 0.2 μg/ml and 0.5 μg/ml, 97 strains)
CC(C)(O/N=C(\C(=O)N[C@@H]1C(=O)N2C(C(=O)[O-])=C(C[n+]3ccccc3)CS[C@H]12)c1csc(N)n1)C(=O)O [ceftazidime]	> 256	12	2.5	0.5	4	≤ 2	≥ 8	did not demonstrate enlargement at any tested concentration	8	8	2	never appeared enlarged	only after 1 μg/ml	appeared enlarged	0.5	greater than 1.0 μg/ml			
C[C@@H](O)[C@H]1C(=O)N2C(C(=O)O)=C(S[C@@H]3CN[C@H](C(=O)N(C)C)C3)[C@H](C)[C@H]12 [meropenem]																	only after 0.5 μg/ml	never appeared enlarged	appeared enlarged
